Measured values from ChEMBL document CHEMBL6071196, “Semisynthetic Tetramate-Containing Fungal Metabolites with Activity against Trichomonas vaginalis and Mycoplasma genitalium” (ACS Med Chem Lett, 2024).
≈ marks a conversion by molar mass, not a printed value.

Legend:
Mycoplasma genitalium = assay: Antibacterial activity against Mycoplasma genitalium G37C assessed as bacterial growth inhibition incubated for 7 days by phenol red reagent based microbroth dilution assay; format: functional; details: Mycoplasmoides genitalium, 168 h, time 7 day
Trichomonas vaginalis = assay: Anti-trichomonal activity against Trichomonas vaginalis assessed as inhibition of parasite growth incubated for 18 hrs; format: functional, organism-based
[1] = Selectivity index, ratio of IC50 for cytotoxicity against african green monkey Vero cells incubated for 48 hrs by celltiter blue assay to MIC for antibacterial activity against Mycoplasma genitalium G37C assessed as bacterial growth inhibition incubated for 7 days by phenol red reagent based microbroth dilution assay; format: toxicity, cell-based; details: read-out: Selectivity Index
[2] = Selectivity index, ratio of IC50 for cytotoxicity against african green monkey Vero cells incubated for 48 hrs by celltiter blue assay to EC50 for anti-trichomonal activity against Trichomonas vaginalis assessed as inhibition of parasite growth incubated for 18 hrs; format: toxicity, cell-based; details: read-out: Ratio IC50/EC50

| Structure (SMILES) | MIC90 (Mycoplasma genitalium) [µM] | EC50 (Trichomonas vaginalis) [µM] | selectivity ratio at 48 h [1] | selectivity ratio at 48 h [2] |
| --- | --- | --- | --- | --- |
| CC1=C[C@H]2C[C@@H](C)CC[C@@H]2[C@@](C)(/C(O)=C2\C(=O)[C@H](CO)N(C)C2=O)[C@H]1/C=C/C=C/C[C@@H](C)O | 6.8 (≈ 3.11 µg/mL) | > 10 |  |  |
| C/C=C/C=C/[C@H]1C(C)=C[C@H]2C[C@@H](C)CC[C@@H]2[C@@]1(C)/C(O)=C1\C(=O)[C@@H](COCc2cn(CC3CCCC3)nn2)N(C)C1=O | 10.9 (≈ 6.29 µg/mL) | > 10 |  |  |
| C/C=C/C=C/[C@H]1C(C)=C[C@H]2C[C@@H](C)CC[C@@H]2[C@@]1(C)C(=O)[C@H]1C(=O)N(C)[C@H](CO)[C@H]1O | 7.5 (≈ 3.12 µg/mL) | > 10 | 2.8 |  |
| CC1=C[C@H]2C[C@@H](C)CC[C@@H]2[C@@](C)(/C(O)=C2\C(=O)[C@@H](COCc3cn(CCO)nn3)N(C)C2=O)[C@H]1/C=C/C=C/C[C@@H](C)O | 10.8 (≈ 6.29 µg/mL) | > 10 | 6.5 |  |
| C/C=C/C=C/[C@H]1C(C)=C[C@H]2C[C@@H](C)CC[C@@H]2[C@@]1(C)/C(O)=C1\C(=O)[C@@H](COC(C)=O)N(C)C1=O | 12.5 (≈ 5.69 µg/mL) | > 10 |  |  |
| CC1=C[C@H]2C[C@@H](C)CC[C@@H]2[C@@](C)(/C(O)=C2\C(=O)[C@@H](COCc3cn(Cc4ccc(C(=O)O)cc4)nn3)N(C)C2=O)[C@H]1/C=C/C=C/C[C@@H](C)O | 37 (≈ 24.9 µg/mL) | > 10 |  |  |
| CC1=C[C@H]2C[C@@H](C)CC[C@@H]2[C@@](C)(/C(O)=C2\C(=O)[C@@H](COCc3cn(CC4CCCCO4)nn3)N(C)C2=O)[C@H]1/C=C/C=C/C[C@@H](C)O (stereo partly specified) | 19.6 (≈ 12.5 µg/mL) | > 10 |  |  |
| CCCCC[C@H]1[C@@H](C)C[C@H]2C[C@@H](C)CC[C@@H]2[C@@]1(C)/C(O)=C1\C(=O)[C@@H](CO)N(C)C1=O | 0.5 (≈ 0.21 µg/mL) | 2.1 | 64 | > 16 |
| C/C=C/C=C/[C@H]1C(C)=C[C@H]2C[C@@H](C)CC[C@@H]2[C@@]1(C)/C(O)=C1\C(=O)[C@@H](COCC=C(C)C)N(C)C1=O | 6.4 (≈ 3.08 µg/mL) | > 10 | 8.8 |  |
| C#CCOC[C@@H]1C(=O)/C(=C(/O)[C@@]2(C)[C@@H](/C=C/C=C/C[C@@H](C)OCC#C)C(C)=C[C@H]3C[C@@H](C)CC[C@@H]32)C(=O)N1C | 5.8 (≈ 3.1 µg/mL) | > 10 | 14 |  |
| C/C=C/C=C/[C@H]1C(C)=C[C@H]2C[C@@H](C)CC[C@@H]2[C@@]1(C)/C(O)=C1\C(=O)[C@@H](COCc2cn(CCO)nn2)N(C)C1=O | 23.2 (≈ 12.5 µg/mL) | > 10 |  |  |
| CC1=C[C@H]2C[C@@H](C)CC[C@@H]2[C@@](C)(/C(O)=C2\C(=O)[C@H](COCc3cn(CCO)nn3)N(C)C2=O)[C@H]1/C=C/C=C/C[C@@H](C)O | > 40 | > 10 |  |  |
| C#CCOC[C@@H]1C(=O)/C(=C(/O)[C@@]2(C)[C@@H](/C=C/C=C/C)C(C)=C[C@H]3C[C@@H](C)CC[C@@H]32)C(=O)N1C | 14 (≈ 6.32 µg/mL) | > 10 |  |  |
| C/C=C/C=C/[C@H]1C(C)=C[C@H]2C[C@@H](C)CC[C@@H]2[C@@]1(C)/C(O)=C1\C(=O)[C@@H](COCc2cn(CCCCC)nn2)N(C)C1=O | 22.1 (≈ 12.5 µg/mL) | > 10 |  |  |
| C/C=C/C=C/[C@H]1C(C)=C[C@H]2C[C@@H](C)CC[C@@H]2[C@@]1(C)/C(O)=C1\C(=O)[C@H](COCc2cn(CC3CCCO3)nn2)N(C)C1=O (stereo partly specified) | 12.5 (≈ 7.23 µg/mL) | > 10 |  |  |
| CC1=C[C@H]2C[C@@H](C)CC[C@@H]2[C@@](C)(/C(O)=C2\C(=O)[C@H](COCc3cn(CCc4ccc(O)cc4)nn3)N(C)C2=O)[C@H]1/C=C/C=C/C[C@@H](C)O | 9.8 (≈ 6.46 µg/mL) | > 10 | 12.1 |  |
| C/C=C/C=C/[C@H]1C(C)=C[C@H]2C[C@@H](C)CC[C@@H]2[C@@]1(C)/C(O)=C1\C(=O)[C@@H](COCc2cn(CC3CCCO3)nn2)N(C)C1=O (stereo partly specified) | 12.5 (≈ 7.23 µg/mL) | 5.4 |  |  |
| C/C=C/C=C/[C@H]1C(C)=C[C@H]2C[C@@H](C)CC[C@@H]2[C@@]1(C)/C(O)=C1\C(=O)[C@H](COCc2cn(CC3CCCCO3)nn2)N(C)C1=O (stereo partly specified) | 5.2 (≈ 3.08 µg/mL) | > 10 | 4.4 |  |
| C/C=C/C=C/[C@H]1C(C)=C[C@H]2C[C@@H](C)CC[C@@H]2[C@@]1(C)/C(O)=C1\C(=O)[C@@H](COCc2cn(Cc3cc(C)cc(C)c3)nn2)N(C)C1=O | 20.4 (≈ 12.5 µg/mL) | > 10 |  |  |
| C/C=C/C=C/[C@H]1C(C)=C[C@H]2C[C@@H](C)CC[C@@H]2[C@@]1(C)/C(O)=C1\C(=O)[C@H](COCc2cn(Cc3cc(C)cc(C)c3)nn2)N(C)C1=O | 20.4 (≈ 12.5 µg/mL) | > 10 |  |  |
| C/C=C/C=C/[C@H]1C(C)=C[C@H]2C[C@@H](C)CC[C@@H]2[C@@]1(C)/C(O)=C1\C(=O)[C@H](COCc2cn(CCO)nn2)N(C)C1=O | 5.8 (≈ 3.12 µg/mL) | > 10 | 9.7 |  |
| CC1=C[C@H]2C[C@@H](C)CC[C@@H]2[C@@](C)(/C(O)=C2\C(=O)[C@@H](COCc3cn(CCc4ccc(O)cc4)nn3)N(C)C2=O)[C@H]1/C=C/C=C/C[C@@H](C)O | 38.8 (≈ 25.6 µg/mL) | 5.4 |  |  |

| Structure (SMILES) | MIC90 (Mycoplasma genitalium) [µM] | EC50 (Trichomonas vaginalis) [µM] | selectivity ratio at 48 h [1] | selectivity ratio at 48 h [2] |
| --- | --- | --- | --- | --- |
| C/C=C/C=C/[C@H]1C(C)=C[C@H]2C[C@@H](C)CC[C@@H]2[C@@]1(C)/C(O)=C1\C(=O)[C@H](COCc2cn(Cc3ccc(C(=O)O)cc3)nn2)N(C)C1=O | > 25 | 7.5 |  |  |
| C/C=C/C=C/[C@H]1C(C)=C[C@H]2C[C@@H](C)CC[C@@H]2[C@@]1(C)/C(O)=C1\C(=O)[C@H](COCc2cn(CCCCC)nn2)N(C)C1=O | 22.1 (≈ 12.5 µg/mL) | > 10 |  |  |
| CC1=C[C@H]2C[C@@H](C)CC[C@@H]2[C@@](C)(/C(O)=C2\C(=O)[C@H](COCc3cn(CC4CCCCO4)nn3)N(C)C2=O)[C@H]1/C=C/C=C/C[C@@H](C)O (stereo partly specified) |  |  |  | 19.6 |
| C/C=C/C=C/[C@H]1C(C)=C[C@H]2C[C@@H](C)CC[C@@H]2[C@@]1(C)/C(O)=C1\C(=O)[C@@H](COCc2cn(CCc3ccc(O)cc3)nn2)N(C)C1=O | 5 (≈ 3.07 µg/mL) | > 10 | 6.1 |  |
| C/C=C/[C@@H]1C=C[C@@H]2C[C@H](C)CC[C@H]2[C@]1(C)/C(O)=C1\C(=O)[C@@H](CO)N(C)C1=O | 2.1 (≈ 0.784 µg/mL) | > 10 | 11.5 |  |
| C/C=C/C=C/[C@H]1C(C)=C[C@H]2C[C@@H](C)CC[C@@H]2[C@@]1(C)/C(O)=C1\C(=O)[C@H](COCc2cn(CCCO)nn2)N(C)C1=O | 22.6 (≈ 12.5 µg/mL) | > 10 |  |  |
| C/C=C/C=C/[C@H]1C(C)=C[C@H]2C[C@@H](C)CC[C@@H]2[C@@]1(C)/C(O)=C1\C(=O)[C@@H](COCc2cn(Cc3c[nH]c4ccccc34)nn2)N(C)C1=O | 4.9 (≈ 3.06 µg/mL) | > 10 | 17.9 |  |
| CC1=C[C@H]2C[C@@H](C)CC[C@@H]2[C@@](C)(/C(O)=C2\C(=O)[C@@H](CO)N(C)C2=O)[C@H]1/C=C/[C@H](O)[C@H](C)O | > 50 | > 10 |  |  |
| C/C=C/C=C/[C@H]1C(C)=C[C@H]2C[C@@H](C)CC[C@@H]2[C@@]1(C)/C(O)=C1\C(=O)[C@@H](COC)N(C)C1=O | 3.7 (≈ 1.58 µg/mL) | > 10 | 6.7 |  |
| C/C=C/C=C/[C@H]1C(C)=C[C@H]2C[C@@H](C)CC[C@@H]2[C@@]1(C)/C(O)=C1\C(=O)[C@H](COCc2cn(CCCCO)nn2)N(C)C1=O | 22.1 (≈ 12.5 µg/mL) | > 10 |  |  |
| CC1=C[C@H]2C[C@@H](C)CC[C@@H]2[C@@](C)(/C(O)=C2\C(=O)[C@H](COCc3cn(Cc4ccc(C(=O)O)cc4)nn3)N(C)C2=O)[C@H]1/C=C/C=C/C[C@@H](C)O | > 37 | > 10 |  |  |
| C/C=C/C=C/[C@H]1C(C)=C[C@H]2C[C@@H](C)CC[C@@H]2[C@@]1(C)/C(O)=C1\C(=O)[C@@H](COCc2cn(CCCCO)nn2)N(C)C1=O | 11.1 (≈ 6.29 µg/mL) | > 10 |  |  |
| C/C=C/C=C/[C@H]1C(C)=C[C@H]2C[C@@H](C)CC[C@@H]2[C@@]1(C)/C(O)=C1\C(=O)[C@H](COCc2cn(Cc3c[nH]c4ccccc34)nn2)N(C)C1=O | 9.9 (≈ 6.18 µg/mL) | > 10 | 2.5 |  |
| C/C=C/C=C/[C@H]1C(C)=C[C@H]2C[C@@H](C)CC[C@@H]2[C@@]1(C)/C(O)=C1\C(=O)[C@H](CO)N(C)C1=O | 25 (≈ 10.3 µg/mL) | > 10 |  |  |
| C/C=C/C=C/[C@H]1C(C)=C[C@H]2C[C@@H](C)CC[C@@H]2[C@@]1(C)/C(O)=C1\C(=O)[C@@H](COCc2cn(CC3CCCCO3)nn2)N(C)C1=O (stereo partly specified) | 5.2 (≈ 3.08 µg/mL) | > 10 | 8.1 |  |
| C/C=C/C=C/[C@H]1C(C)=C[C@H]2C[C@@H](C)CC[C@@H]2[C@@]1(C)/C(O)=C1\C(=O)[C@H](COCc2cn(CC3CCCC3)nn2)N(C)C1=O | 5.4 (≈ 3.11 µg/mL) | > 10 | 7.9 |  |
| CC1=C[C@H]2C[C@@H](C)CC[C@@H]2[C@@](C)(/C(O)=C2\C(=O)[C@@H](CO)N(C)C2=O)[C@H]1/C=C/[C@@H](O)[C@@H](C)O | 12.5 (≈ 5.59 µg/mL) | > 10 |  |  |
| C/C=C/C=C/[C@H]1C(C)=C[C@H]2C[C@@H](C)CC[C@@H]2[C@@]1(C)[C@@H](O)[C@H]1C(=O)N(C)[C@H](CO)[C@H]1O | 30.1 (≈ 12.6 µg/mL) | > 10 |  |  |
| C/C=C/C=C/[C@H]1C(C)=C[C@H]2C[C@@H](C)CC[C@@H]2[C@@]1(C)/C(O)=C1\C(=O)[C@@H](COCc2ccccc2)N(C)C1=O | 24.8 (≈ 12.5 µg/mL) | > 10 |  |  |
| C/C=C/C=C/[C@H]1C(C)=C[C@H]2C[C@@H](C)CC[C@@H]2[C@@]1(C)/C(O)=C1\C(=O)[C@@H](COCc2cn(CCCO)nn2)N(C)C1=O | 22.6 (≈ 12.5 µg/mL) | > 10 |  |  |
| C/C=C/C=C/[C@H]1C(C)=C[C@H]2C[C@@H](C)CC[C@@H]2[C@@]1(C)/C(O)=C1/C(=O)N[C@@H](CO)C1=O | 62.6 (≈ 25 µg/mL) | > 10 |  |  |
